{"source": "patent US10583101B2", "about": "(EMCURE PHARMACEUTICALS LIMITED, priority 2016, dated 2020)", "origin": "cited, not measured here", "data": [{"compound": "O=NN(CCCl)C(=O)NCCCl", "note": "[Carmustine, 1,3-bis (2-chloroethyl)-1-nitrosourea]", "values": [{"measurement": "solubility in alcohol and lipids", "setting": "alcohol and lipids", "result": "highly soluble in alcohol and lipids"}, {"measurement": "solubility in water", "setting": "water", "result": "poorly soluble in water"}]}]}
